Data as given in patent US20100267561A1, “HERBICIDAL PYRIDAZINONE DERIVATIVES” (priority 2007, published 2010).

How the values were obtained:
Experiment in all cases: Test E pre-/postemergence plant response
Type in all cases: in vivo
Details in all cases: scale 0 to 100
[1] = tested on: guineagrass (Panicum maximum)
Procedure, shortened: (§1)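 Plant response was judged by eye relative to controls, 0 meaning no effect and 100 complete control, after 14 to 21 days under greenhouse conditions. Compound was formulated in a non-phytotoxic solvent mixture with surfactant.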

[2] = tested on: common purslane (Portulaca oleracea)
Procedure, shortened: as §1

[3] = tested on: purple nutsedge (Cyperus rotundus)
Procedure, shortened: as §1

[4] = tested on: annual bluegrass (Poa annua)
Procedure, shortened: as §1

[5] = tested on: dallisgrass (Paspalum dilatatum)
Procedure, shortened: as §1

[6] = tested on: bermudagrass (Cynodon dactylon)
Procedure, shortened: as §1

[7] = tested on: large crabgrass (Digitaria sanguinalis)
Procedure, shortened: as §1

[8] = tested on: common mallow (Malva sylvestris)
Procedure, shortened: as §1

Cn1ncc(O)c(-c2nn(-c3ccc(Cl)cc3)cc2Br)c1=O [Compound 31]
70: Plant response rating, Dallisgrass ([5]; Postemergence, 62 g ai/ha)
100: Plant response rating, Guineagrass ([1]; 31 g ai/ha, Preemergence) | Plant response rating, Guineagrass ([1]; 62 g ai/ha, Preemergence) | Plant response rating, Bermudagrass ([6]; 62 g ai/ha, Preemergence)
90: Plant response rating, Guineagrass ([1]; 16 g ai/ha, Preemergence) | Plant response rating, Guineagrass ([1]; Postemergence, 62 g ai/ha) | Plant response rating, Bermudagrass ([6]; Postemergence, 31 g ai/ha)
15: Plant response rating, Dallisgrass ([5]; 16 g ai/ha, Preemergence)
95: Plant response rating, Bermudagrass ([6]; 31 g ai/ha, Preemergence) | Plant response rating, Bermudagrass ([6]; Postemergence, 62 g ai/ha) | Plant response rating, Crabgrass, Large ([7]; 62 g ai/ha, Preemergence)
40: Plant response rating, Dallisgrass ([5]; Postemergence, 16 g ai/ha) | Plant response rating, Crabgrass, Large ([7]; 16 g ai/ha, Preemergence)
35: Plant response rating, Dallisgrass ([5]; Postemergence, 8 g ai/ha)
60: Plant response rating, Dallisgrass ([5]; Postemergence, 31 g ai/ha) | Plant response rating, Crabgrass, Large ([7]; Postemergence, 8 g ai/ha)
85: Plant response rating, Guineagrass ([1]; Postemergence, 31 g ai/ha)
75: Plant response rating, Guineagrass ([1]; Postemergence, 8 g ai/ha) | Plant response rating, Dallisgrass ([5]; 31 g ai/ha, Preemergence) | Plant response rating, Bermudagrass ([6]; 16 g ai/ha, Preemergence) | Plant response rating, Bermudagrass ([6]; Postemergence, 16 g ai/ha) | Plant response rating, Crabgrass, Large ([7]; 31 g ai/ha, Preemergence) | Plant response rating, Crabgrass, Large ([7]; Postemergence, 31 g ai/ha)
0: Plant response rating, Purslane ([2]; 16 g ai/ha, Preemergence) | Plant response rating, Purslane ([2]; 31 g ai/ha, Preemergence) | Plant response rating, Purslane ([2]; 62 g ai/ha, Preemergence) | Plant response rating, Purslane ([2]; Postemergence, 8 g ai/ha) | Plant response rating, Purslane ([2]; Postemergence, 16 g ai/ha) | Plant response rating, Purslane ([2]; Postemergence, 31 g ai/ha) | Plant response rating, Purslane ([2]; Postemergence, 62 g ai/ha) | Plant response rating, Nutsedge, Purple ([3]; 16 g ai/ha, Preemergence) | Plant response rating, Nutsedge, Purple ([3]; 31 g ai/ha, Preemergence) | Plant response rating, Nutsedge, Purple ([3]; 62 g ai/ha, Preemergence) | Plant response rating, Nutsedge, Purple ([3]; Postemergence, 8 g ai/ha) | Plant response rating, Nutsedge, Purple ([3]; Postemergence, 16 g ai/ha) | Plant response rating, Nutsedge, Purple ([3]; Postemergence, 31 g ai/ha) | Plant response rating, Nutsedge, Purple ([3]; Postemergence, 62 g ai/ha) | Plant response rating, Bluegrass ([4]; 8 g ai/ha, Preemergence) | Plant response rating, Bluegrass ([4]; 16 g ai/ha, Preemergence) | Plant response rating, Bluegrass ([4]; 31 g ai/ha, Preemergence) | Plant response rating, Bluegrass ([4]; 62 g ai/ha, Preemergence) | Plant response rating, Bluegrass ([4]; Postemergence, 8 g ai/ha) | Plant response rating, Bluegrass ([4]; Postemergence, 16 g ai/ha) | Plant response rating, Bluegrass ([4]; Postemergence, 31 g ai/ha) | Plant response rating, Dallisgrass ([5]; 8 g ai/ha, Preemergence) | Plant response rating, Bermudagrass ([6]; 8 g ai/ha, Preemergence) | Plant response rating, Crabgrass, Large ([7]; 8 g ai/ha, Preemergence) | Plant response rating, Mallow ([8]; 31 g ai/ha, Preemergence) | Plant response rating, Mallow ([8]; 62 g ai/ha, Preemergence) | Plant response rating, Mallow ([8]; Postemergence, 8 g ai/ha) | Plant response rating, Mallow ([8]; Postemergence, 16 g ai/ha) | Plant response rating, Mallow ([8]; Postemergence, 31 g ai/ha) | Plant response rating, Mallow ([8]; Postemergence, 62 g ai/ha)
98: Plant response rating, Dallisgrass ([5]; 62 g ai/ha, Preemergence)
10: Plant response rating, Bluegrass ([4]; Postemergence, 62 g ai/ha)
65: Plant response rating, Bermudagrass ([6]; Postemergence, 8 g ai/ha) | Plant response rating, Crabgrass, Large ([7]; Postemergence, 16 g ai/ha)
80: Plant response rating, Guineagrass ([1]; Postemergence, 16 g ai/ha) | Plant response rating, Crabgrass, Large ([7]; Postemergence, 62 g ai/ha)

COC(=O)Oc1cnn(C)c(=O)c1-n1nc(-c2ccc(Cl)cc2)cc1C [Compound 33]
70: Plant response rating, Bermudagrass ([6]; Postemergence, 8 g ai/ha) | Plant response rating, Crabgrass, Large ([7]; Postemergence, 8 g ai/ha)
5: Plant response rating, Bluegrass ([4]; Postemergence, 31 g ai/ha) | Plant response rating, Bluegrass ([4]; Postemergence, 62 g ai/ha)
25: Plant response rating, Dallisgrass ([5]; 8 g ai/ha, Preemergence)
100: Plant response rating, Guineagrass ([1]; 16 g ai/ha, Preemergence) | Plant response rating, Guineagrass ([1]; 31 g ai/ha, Preemergence) | Plant response rating, Guineagrass ([1]; 62 g ai/ha, Preemergence) | Plant response rating, Dallisgrass ([5]; 62 g ai/ha, Preemergence) | Plant response rating, Bermudagrass ([6]; 62 g ai/ha, Preemergence) | Plant response rating, Crabgrass, Large ([7]; 31 g ai/ha, Preemergence) | Plant response rating, Crabgrass, Large ([7]; 62 g ai/ha, Preemergence)
50: Plant response rating, Dallisgrass ([5]; 16 g ai/ha, Preemergence)
0: Plant response rating, Purslane ([2]; 16 g ai/ha, Preemergence) | Plant response rating, Purslane ([2]; 31 g ai/ha, Preemergence) | Plant response rating, Purslane ([2]; 62 g ai/ha, Preemergence) | Plant response rating, Purslane ([2]; Postemergence, 8 g ai/ha) | Plant response rating, Purslane ([2]; Postemergence, 16 g ai/ha) | Plant response rating, Purslane ([2]; Postemergence, 31 g ai/ha) | Plant response rating, Purslane ([2]; Postemergence, 62 g ai/ha) | Plant response rating, Nutsedge, Purple ([3]; 16 g ai/ha, Preemergence) | Plant response rating, Nutsedge, Purple ([3]; 31 g ai/ha, Preemergence) | Plant response rating, Nutsedge, Purple ([3]; 62 g ai/ha, Preemergence) | Plant response rating, Nutsedge, Purple ([3]; Postemergence, 8 g ai/ha) | Plant response rating, Nutsedge, Purple ([3]; Postemergence, 16 g ai/ha) | Plant response rating, Nutsedge, Purple ([3]; Postemergence, 31 g ai/ha) | Plant response rating, Nutsedge, Purple ([3]; Postemergence, 62 g ai/ha) | Plant response rating, Bluegrass ([4]; 8 g ai/ha, Preemergence) | Plant response rating, Bluegrass ([4]; 16 g ai/ha, Preemergence) | Plant response rating, Bluegrass ([4]; 31 g ai/ha, Preemergence) | Plant response rating, Bluegrass ([4]; 62 g ai/ha, Preemergence) | Plant response rating, Bluegrass ([4]; Postemergence, 8 g ai/ha) | Plant response rating, Bluegrass ([4]; Postemergence, 16 g ai/ha) | Plant response rating, Mallow ([8]; 16 g ai/ha, Preemergence) | Plant response rating, Mallow ([8]; 31 g ai/ha, Preemergence) | Plant response rating, Mallow ([8]; 62 g ai/ha, Preemergence) | Plant response rating, Mallow ([8]; Postemergence, 8 g ai/ha) | Plant response rating, Mallow ([8]; Postemergence, 16 g ai/ha) | Plant response rating, Mallow ([8]; Postemergence, 31 g ai/ha) | Plant response rating, Mallow ([8]; Postemergence, 62 g ai/ha)
65: Plant response rating, Dallisgrass ([5]; Postemergence, 31 g ai/ha) | Plant response rating, Dallisgrass ([5]; Postemergence, 62 g ai/ha)
95: Plant response rating, Guineagrass ([1]; Postemergence, 62 g ai/ha) | Plant response rating, Bermudagrass ([6]; Postemergence, 62 g ai/ha) | Plant response rating, Crabgrass, Large ([7]; Postemergence, 62 g ai/ha)
40: Plant response rating, Crabgrass, Large ([7]; 8 g ai/ha, Preemergence)
75: Plant response rating, Crabgrass, Large ([7]; 16 g ai/ha, Preemergence) | Plant response rating, Crabgrass, Large ([7]; Postemergence, 16 g ai/ha)
80: Plant response rating, Guineagrass ([1]; Postemergence, 8 g ai/ha) | Plant response rating, Guineagrass ([1]; Postemergence, 16 g ai/ha) | Plant response rating, Dallisgrass ([5]; 31 g ai/ha, Preemergence) | Plant response rating, Bermudagrass ([6]; Postemergence, 16 g ai/ha)
35: Plant response rating, Dallisgrass ([5]; Postemergence, 8 g ai/ha) | Plant response rating, Dallisgrass ([5]; Postemergence, 16 g ai/ha)
98: Plant response rating, Bermudagrass ([6]; 31 g ai/ha, Preemergence)
90: Plant response rating, Guineagrass ([1]; Postemergence, 31 g ai/ha) | Plant response rating, Bermudagrass ([6]; 8 g ai/ha, Preemergence) | Plant response rating, Bermudagrass ([6]; 16 g ai/ha, Preemergence) | Plant response rating, Bermudagrass ([6]; Postemergence, 31 g ai/ha) | Plant response rating, Crabgrass, Large ([7]; Postemergence, 31 g ai/ha)

Cc1cc(-c2ccc(Cl)cc2)nn1-c1c(OC(=O)C(C)C)cnn(C)c1=O [Compound 34]
85: Plant response rating, Dallisgrass ([5]; 31 g ai/ha, Preemergence) | Plant response rating, Dallisgrass ([5]; 62 g ai/ha, Preemergence)
20: Plant response rating, Nutsedge, Purple ([3]; 31 g ai/ha, Preemergence) | Plant response rating, Dallisgrass ([5]; Postemergence, 16 g ai/ha) | Plant response rating, Dallisgrass ([5]; Postemergence, 31 g ai/ha) | Plant response rating, Bermudagrass ([6]; Postemergence, 8 g ai/ha)
50: Plant response rating, Dallisgrass ([5]; 16 g ai/ha, Preemergence) | Plant response rating, Bermudagrass ([6]; Postemergence, 16 g ai/ha) | Plant response rating, Crabgrass, Large ([7]; 31 g ai/ha, Preemergence)
90: Plant response rating, Bermudagrass ([6]; 31 g ai/ha, Preemergence)
60: Plant response rating, Crabgrass, Large ([7]; Postemergence, 8 g ai/ha)
80: Plant response rating, Bermudagrass ([6]; Postemergence, 31 g ai/ha)
100: Plant response rating, Guineagrass ([1]; 16 g ai/ha, Preemergence) | Plant response rating, Guineagrass ([1]; 31 g ai/ha, Preemergence) | Plant response rating, Guineagrass ([1]; 62 g ai/ha, Preemergence) | Plant response rating, Guineagrass ([1]; Postemergence, 31 g ai/ha) | Plant response rating, Guineagrass ([1]; Postemergence, 62 g ai/ha) | Plant response rating, Bermudagrass ([6]; 62 g ai/ha, Preemergence) | Plant response rating, Crabgrass, Large ([7]; 62 g ai/ha, Preemergence) | Plant response rating, Crabgrass, Large ([7]; Postemergence, 31 g ai/ha) | Plant response rating, Crabgrass, Large ([7]; Postemergence, 62 g ai/ha)
0: Plant response rating, Purslane ([2]; 16 g ai/ha, Preemergence) | Plant response rating, Purslane ([2]; 31 g ai/ha, Preemergence) | Plant response rating, Purslane ([2]; Postemergence, 8 g ai/ha) | Plant response rating, Purslane ([2]; Postemergence, 16 g ai/ha) | Plant response rating, Purslane ([2]; Postemergence, 31 g ai/ha) | Plant response rating, Purslane ([2]; Postemergence, 62 g ai/ha) | Plant response rating, Nutsedge, Purple ([3]; 16 g ai/ha, Preemergence) | Plant response rating, Nutsedge, Purple ([3]; Postemergence, 8 g ai/ha) | Plant response rating, Nutsedge, Purple ([3]; Postemergence, 16 g ai/ha) | Plant response rating, Nutsedge, Purple ([3]; Postemergence, 31 g ai/ha) | Plant response rating, Nutsedge, Purple ([3]; Postemergence, 62 g ai/ha) | Plant response rating, Bluegrass ([4]; 16 g ai/ha, Preemergence) | Plant response rating, Bluegrass ([4]; 31 g ai/ha, Preemergence) | Plant response rating, Bluegrass ([4]; Postemergence, 8 g ai/ha) | Plant response rating, Bluegrass ([4]; Postemergence, 16 g ai/ha) | Plant response rating, Bluegrass ([4]; Postemergence, 31 g ai/ha) | Plant response rating, Bluegrass ([4]; Postemergence, 62 g ai/ha) | Plant response rating, Mallow ([8]; 16 g ai/ha, Preemergence) | Plant response rating, Mallow ([8]; 31 g ai/ha, Preemergence) | Plant response rating, Mallow ([8]; 62 g ai/ha, Preemergence) | Plant response rating, Mallow ([8]; Postemergence, 8 g ai/ha) | Plant response rating, Mallow ([8]; Postemergence, 16 g ai/ha) | Plant response rating, Mallow ([8]; Postemergence, 31 g ai/ha) | Plant response rating, Mallow ([8]; Postemergence, 62 g ai/ha)
15: Plant response rating, Bluegrass ([4]; 62 g ai/ha, Preemergence)
70: Plant response rating, Dallisgrass ([5]; Postemergence, 62 g ai/ha)
95: Plant response rating, Guineagrass ([1]; Postemergence, 8 g ai/ha) | Plant response rating, Guineagrass ([1]; Postemergence, 16 g ai/ha) | Plant response rating, Bermudagrass ([6]; Postemergence, 62 g ai/ha)
40: Plant response rating, Bermudagrass ([6]; 16 g ai/ha, Preemergence)
75: Plant response rating, Crabgrass, Large ([7]; Postemergence, 16 g ai/ha)
35: Plant response rating, Nutsedge, Purple ([3]; 62 g ai/ha, Preemergence)
10: Plant response rating, Dallisgrass ([5]; Postemergence, 8 g ai/ha)
